Values quoted from earlier work, collected in patent US11554003B2, “Filtration devices and methods related thereto” (The Regents of the University of California, priority 2015, dated 2023).

Conditions: IAC; regardless of infused dose

## COc1cccc2c1C(=O)c1c(O)c3c(c(O)c1C2=O)C[C@@](O)(C(=O)CO)C[C@@H]3O[C@H]1C[C@H](N)[C@H](O)[C@H](C)O1 [Dox, doxorubicin]
  first pass hepatic clearance: 50-70%
